In PubChem BioAssay AID248 (DTP/NCI, 2004):
Several values for one entry are separate records, joined by “and”; a condition that tells them apart may be missing. Identical values can stand only once. Toxic doses and inconclusive results are not listed. No stated cut-off is given here; in the data, active means T/C of 150% or more; inactive means T/C below 125%.

Test system: L1210 leukemia ip in BDF1 mice, survival T/C
Experiment: NCI In Vivo Anticancer Drug Screen. Data for tumor model L1210 Leukemia (intraperitoneal) in B6D2F1 (BDF1) mice
Conditions: endpoint: mean survival time, higher = longer survival
Summary of the method: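 Ratio derived from survival: compound-dosed mice over vehicle-dosed mice, all bearing a transplantable tumor.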

Measured: T/C

Cc1ccc2cccnc2c1N (tested in a mixture with another compound)
inactive: dose: 1.56 mg/kg/injection, schedule: Q01DX009 (ip), vehicle: DMSO 101 % of control | dose: 3.12 mg/kg/injection, schedule: Q01DX009 (ip), vehicle: DMSO 97 % of control | dose: 6.25 mg/kg/injection, schedule: Q01DX009 (ip), vehicle: DMSO 95 % of control and 97 % of control | dose: 12.5 mg/kg/injection, schedule: Q01DX009 (ip), vehicle: DMSO 100 % of control | dose: 25.0 mg/kg/injection, schedule: Q01DX009 (ip), vehicle: DMSO 94 % of control and 88 % of control | dose: 25.0 mg/kg/injection, schedule: Q04DX003 (ip), vehicle: DMSO 107 % of control | dose: 50.0 mg/kg/injection, schedule: Q04DX003 (ip), vehicle: DMSO 86 % of control | dose: 100.0 mg/kg/injection, schedule: Q04DX003 (ip), vehicle: DMSO 98 % of control

CN(C)/N=N/c1nc[nH]c1C(=O)N/N=C/c1ccc(N(CCCl)CCCl)cc1
inactive: dose: 100.0 mg/kg/injection, schedule: Q01DX001 (ip), vehicle: other 100 % of control | dose: 200.0 mg/kg/injection, schedule: Q01DX001 (ip), vehicle: other 104 % of control | dose: 400.0 mg/kg/injection, schedule: Q01DX001 (ip), vehicle: other 98 % of control

Cc1cc([N+](=O)[O-])c(C)cc1O
inactive: dose: 75.0 mg/kg/injection, schedule: Q01DX001 (ip), vehicle: saline 91 % of control | dose: 150.0 mg/kg/injection, schedule: Q01DX001 (ip), vehicle: saline 94 % of control

COc1ccc(CN2CCCN(Cc3ccc(OC)cc3OC)C2c2cccc(F)c2)c(OC)c1
inactive: dose: 50.0 mg/kg/injection, schedule: Q01DX001 (ip), vehicle: saline 89 % of control | dose: 100.0 mg/kg/injection, schedule: Q01DX001 (ip), vehicle: saline 89 % of control | dose: 200.0 mg/kg/injection, schedule: Q01DX001 (ip), vehicle: saline 100 % of control | dose: 400.0 mg/kg/injection, schedule: Q01DX001 (ip), vehicle: saline 91 % of control

Cc1ccc(S(=O)(=O)Nc2ccc(Cl)c(Cl)c2)cc1
inactive: dose: 100.0 mg/kg/injection, schedule: Q04DX003 (ip), vehicle: Klucel (hydroxypropylcellulose) (HPC) 97 % of control | dose: 200.0 mg/kg/injection, schedule: Q04DX003 (ip), vehicle: Klucel (hydroxypropylcellulose) (HPC) 96 % of control | dose: 400.0 mg/kg/injection, schedule: Q04DX003 (ip), vehicle: Klucel (hydroxypropylcellulose) (HPC) 94 % of control

CC1(C)N=C(N)N=C(N)N1c1cccc(CCC(=O)Nc2ccc(S(=O)(=O)F)cc2)c1
inactive: dose: 0.8 mg/kg/injection, schedule: Q01DX009 (ip), vehicle: saline 103 % of control | dose: 4.0 mg/kg/injection, schedule: Q01DX009 (ip), vehicle: saline 101 % of control | dose: 20.0 mg/kg/injection, schedule: Q01DX009 (ip), vehicle: saline 103 % of control | dose: 100.0 mg/kg/injection, schedule: Q01DX009 (ip), vehicle: saline 112 % of control

Cc1ccc2c(n1)Nc1nc(N)[nH]c(=O)c1S2
inactive: dose: 12.5 mg/kg/injection, schedule: Q04DX003 (ip), vehicle: carboxymethylcellulose (CMC) 97 % of control | dose: 25.0 mg/kg/injection, schedule: Q04DX003 (ip), vehicle: carboxymethylcellulose (CMC) 97 % of control
